Counter-ions that a name gives are not always drawn.
Molecular target: muscarinic acetylcholine receptors
Test: Inhibition of specific binding of 3H-Oxotremorine-M (3H-Oxo)
Parameters: species or system rat (male Wistar
Settings: rat cortex; 3H-Oxotremorine 1.0 nM; 20 mM Hepes pH 7.4; 30 min at 25° C.
Method: The pharmacological properties of the compounds of the present invention (Formula I) can be illustrated by determining their capability to inhibit the specific binding of ^3 H-Oxotremorine-M (^3 H-Oxo).
^3 H-Oxo labels muscarinic receptors in the CNS (with a preference for agonist domaines of the receptors). Three different sites are labelled by 3H-Oxo. These sites have affinity of 1.0, 20 and 3000 nM, respectively. Using the present experimental conditions only the high and medium affinity sites are determined. The inhibitory effects of compounds on ^3 H-Oxo binding reflects the affinity for muscarinic acetylcholine receptors.
All preparations are performed at 0°-4° C. unless otherwise indicated. Fresh cortex (0.1-1 g) from male Wistar rats (150-250 g) is homogenized for 5-10 s in 10 ml 20 mM Hepes pH: 7.4, with an Ultra-Turrax homogenizer. The homogenizer is rinsed with 10 ml of buffer and the combined suspension centrifuged for 15 min at 40,000×g. The pellet is washed three times with buffer. In each step the pellet is homogenized as before in 2×10 ml of buffer and centrifuged for 10 min at 40,000×g. The final pellet is homogenized in 20 mM Hepes pH: 7.4 (100 ml per g of original tissue) and used for binding assay. Aliquots of 0.5 ml is added 25 μl of test solution and 25 μl of ^3 H-Oxotremorine (1.0 nM, final concentration) mixed and incubated for 30 min at 25° C. Non-specific binding is determined in triplicate using Arecoline (1 μg/ml, final concentration) as the test substance. After incubation samples are added 5 ml of ice-cold buffer and poured directly onto Whatman GF/C glass fiber filters under suction and immediately washed 2 times with 5 ml of ice-cold buffer. The amount of radioactivity on the filters are determined by conventional liquid scintillation counting. Specific binding is total binding minus non-specific binding. Test substances are dissolved in 10 ml water (if necessary heated on a steam-bath for less than 5 minutes) at a concentration of 2.2 mg/ml. 25-75% inhibition of specific binding must be obtained before calculation of IC50.
The test value will be given as IC50 (the concentration (ng/ml) of the test substance which inhibits the specific binding of ^3 H-Oxo by 50%). [formula] where Co is specific binding in control assays and Cx is the specific binding in the test assay. (The calculations assume normal mass-action kinetics).

| SMILES | Inhibition in vitro OXO BINDING (IC50: concentration which inhibits the specific binding of 3H-Oxo by 50%) [ng/mL] |
| --- | --- |
| CCC/C=C\COc1nsnc1C1=CCCN(C)C1.O=C(O)C(=O)O [Compound 32, cis-3-(4-(2-hexenyloxy)-1,2,5-thiadiazol-3-yl)-1,2,5,6-tetrahydro-1-methylpyridine oxalate] | 1.4 |
| CCC/C=C/COc1nsnc1C1=CCCN(C)C1.O=C(O)C(=O)O [Compound 35, trans-3-(4-(2-hexenyloxy)-1,2,5-thiadiazol-3-yl)-1,2,5,6-tetrahydro-1-methylpyridine oxalate] | 0.6 |
| CN1CCC=C(c2cnsn2)C1.O=C(O)C(=O)O [Compound 36, 3-(1,2,5-thiadiazol-3-yl)-1,2,5,6-tetrahydro-1-methylpyridine oxalate] | 0.3 |
| CCCCCCOc1nsnc1C1=CCCNC1.O=C(O)C(=O)O [Compound 37, 1,2,5,6-tetrahydro-3-(4-hexyloxy-1,2,5-thiadiazol-3-yl) pyridine oxalate] | 6.3 |
| COCCOCCOc1nsnc1C1=CCCN(C)C1.O=C(O)C(=O)O [Compound 38, 3-(4-(2-(2-methoxyethoxy)ethoxy)-1,2,5-thiadiazol-3-yl)-1,2,5,6-tetrahydro-1-methylpyridine oxalate] | 7.4 |
| CCOCCOc1nsnc1C1=CCCN(C)C1.O=C(O)C(=O)O [Compound 40, 3-(4-(2-ethoxyethoxy)-1,2,5-thiadiazol-3-yl)-1,2,5,6-tetrahydro-1-methylpyridine oxalate] | 3.7 |
| CCCCOCCOc1nsnc1C1=CCCN(C)C1.O=C(O)C(=O)O [Compound 41, 3-(4-(2-butoxyethoxy)-1,2,5-thiadiazol-3-yl)-1,2,5,6-tetrahydro-1-methylpyridine oxalate] | 1.3 |
| CCCCOCCOCCOc1nsnc1C1=CCCN(C)C1.O=C(O)C(=O)O [Compound 42, 3-(4-(2-(2-butoxyethoxy)ethoxy)-1,2,5-thiadiazol-3-yl)-1,2,5,6-tetrahydro-1-methylpyridine oxalate] | 7.0 |
| CCOCCOCCOc1nsnc1C1=CCCN(C)C1.O=C(O)C(=O)O [Compound 43, 3-(4-(2-(2-ethoxyethoxy)ethoxy)-1,2,5-thiadiazol-3-yl)-1,2,5,6-tetrahydro-1-methylpyridine oxalate] | 4.0 |
| CC1CCN(c2nsnc2C2=CCCN(C)C2)CC1.O=C(O)C(=O)O [Compound 44, 3-(4-(4-methylpiperidino)-1,2,5-thiadiazol-3-yl)-1,2,5,6-tetrahydro-1-methylpyridine oxalate] | 14 |
| CN1CCC=C(c2nsnc2N2CCOCC2)C1 [Compound 45, 3-(4-morpholino-1,2,5-thiadiazol-3-yl)-1,2,5,6-tetrahydro-1-methylpyridineoxalate] | 115 |
| CCCCCCNc1nsnc1C1=CCCN(C)C1 [Compound 46, 3-(4-hexylamino-1,2,5-thiadiazol-3-yl)-1,2,5,6-tetrahydro-1-methylpyridineoxalate] | 18 |
| CCCSc1nsnc1C1=CCCN(C)C1 [Compound 47, 3-(4-propylthio-1,2,5-thiadiazol-3-yl)-1,2,5,6-tetrahydro-1-methylpyridineoxalate] | 0.3 |
| CCCCSc1nsnc1C1=CCCN(C)C1.O=C(O)C(=O)O [Compound 48, 3-(4-butylthio-1,2,5-thiadiazol-3-yl)-1,2,5,6-tetrahydro-1-methylpyridine oxalate] | 0.6 |
| CSc1nsnc1C1=CCCN(C)C1 [Compound 49, 3-(4-methylthio-1,2,5-thiadiazol-3-yl)-1,2,5,6-tetrahydro-1-methylpyridineoxalate] | 0.7 |
| CN1CCC=C(c2nonc2N)C1.O=C(O)C(=O)O [Compound 50, 3-(4-amino-1,2,5-oxadiazol-3-yl)-1,2,5,6-tetrahydro-1-methylpyridine oxalate] | 300 |
| CC(=O)Nc1nonc1C1=CCCN(C)C1 [Compound 51, 3-(4-acetylamino-1,2,5-oxadiazol-3-yl)-1,2,5,6-tetrahydro-1-methylpyridineoxalate] | 300 |
| CN1CCC=C(c2nonc2Cl)C1.O=C(O)C(=O)O [Compound 52, 3-(4-chloro-1,2,5-oxadiazol-3-yl)-1,2,5,6-tetrahydro-1-methylpyridine oxalate] | 65 |
| CN1CCC=C(c2cnon2)C1.O=C(O)C(=O)O [Compound 53, 3-(1,2,5-oxadiazol-3-yl)-1,2,5,6-tetrahydro-1-methylpyridine oxalate] | 1.2 |
| CCCCCCOc1nonc1C1=CCCN(C)C1.O=C(O)C(=O)O [Compound 54, 3-(4-hexyloxy-1,2,5-oxadiazol-3-yl)-1,2,5,6-tetrahydro-1-methylpyridine oxalate] | 20 |
| CCCCOc1nonc1C1=CCCN(C)C1.O=C(O)C(=O)O [Compound 55, 3-(4-butyloxy-1,2,5-oxadiazol-3-yl)-1,2,5,6-tetrahydro-1-methylpyridine oxalate] | 8 |
| CCC#CCCOc1nonc1C1=CCCN(C)C1.O=C(O)C(=O)O [Compound 56, 3-(4-(3-hexynyloxy)-1,2,5-oxadiazol-3-yl)-1,2,5,6-tetrahydro-1-methylpyridine oxalate] | 2.1 |
| CCCCCCCc1nsnc1C1=CCCN(C)C1 [Compound 58, 3-(4-heptyl-1,2,5-thiadiazol-3-yl)-1,2,5,6-tetrahydro-1-methylpyridinium oxalate] | 50 |
| CCCCCCCCc1nsnc1C1=CCCN(C)C1 [Compound 60, 3-(4-octyl-1,2,5-thiadiazol-3-yl)-1,2,5,6-tetrahydro-1-methylpyridinium oxalate] | 164 |
| CC(C)Cc1nsnc1C1=CCCN(C)C1 [Compound 61, 3-(4-isobutyl-1,2,5-thiadiazol-3-yl)-1,2,5,6-tetrahydro-1-methylpyridinium oxalate] | 50 |
| CN1CCC=C(c2nsnc2CC2CC2)C1 [Compound 62, 3-(4-cyclopropylmethyl-1,2,5-thiadiazol-3-yl)-1,2,5,6-tetrahydro-1-methylpyridinium oxalate] | 32 |
| CCCc1nsnc1C1=CCCN(C)C1 [Compound 63, 3-(4-propyl-1,2,5-thiadiazol-3-yl)-1,2,5,6-tetrahydro-1-methylpyridinium oxalate] | 25 |

— US5712297A, “Piperdine compounds and their preparation and use” (Novo Nordisk A/S, priority 1989, dated 1998)
